{
  "source": "paper PMC6395531",
  "about": "(Journal of medicinal chemistry, 2019)",
  "key": {"[1]": {"test_system": "Salmonella typhimurium (TA98, TA100, TA1535, TA1537) and Escherichia coli (WP2 uvrA)", "experiment": "Bacterial reverse mutation assay", "conditions": "presence and absence of S9; monotartaric salts; 1.5 to 5000 μg/plate"}, "[2]": {"experiment": "Pharmacokinetics of 29 in rats", "conditions": "male, Sprague-Dawley, rat, in vivo"}, "[3]": {"experiment": "Caco-2 bidirectional permeability", "assay_type": "in vitro ADME", "conditions": "Table 3"}},
  "data": [
    {"smiles": "CCc1ccc2nc(N3CCC(NCC4(C)COC4)CC3)c(-c3nc(C)no3)cc2c1", "note": "[Compound 35, 1-(6-ethyl-3-(3-methyl-1,2,4-oxadiazol-5-yl)quinolin-2-yl)-N-((3-methyloxetan-3-yl)methyl)piperidin-4-amine]", "values": [
      {"measurement": "mutagenicity in the TA1537 strain (Ames assay)", "setting": "[1]", "value": "exhibited mutagenicity in the TA1537 strain in the presence and absence of S9"}
    ]},
    {"smiles": "Cc1ccc2nc(N3CCC(NC4CCOCC4)CC3)c(-c3nc(C)no3)cc2c1", "note": "[Compound 29, 1-(6-methyl-3-(3-methyl-1,2,4-oxadiazol-5-yl)quinolin-2-yl)-N-(tetrahydro-2H-pyran-4-yl)piperidin-4-amine]", "values": [
      {"measurement": "AUC(0-inf)", "setting": "[2]; iv, 1 mg/kg", "value": 212, "unit": "ng·h/mL"},
      {"measurement": "AUC(0-inf)", "setting": "[2]; po, 2 mg/kg", "value": 28.4, "unit": "ng·h/mL"},
      {"measurement": "Caco-2 cells A-B", "setting": "[3]", "value": 26.2, "unit": "×10⁻⁶ cm/s"}
    ]},
    {"smiles": "CCc1ccc2nc(N3CCC(N[C@@H]4CCCOC4)CC3)c(-c3nc(C)no3)cc2c1", "note": "[Compound 36, (R)-1-(6-ethyl-3-(3-methyl-1,2,4-oxadiazol-5-yl)quinolin-2-yl)-N-(tetrahydro-2H-pyran-3-yl)piperidin-4-amine]", "values": [
      {"measurement": "mutagenicity in the TA1537 strain (Ames assay)", "setting": "[1]", "value": "showed a mutagenic response in the TA1537 strain but only in the absence of S9"}
    ]},
    {"smiles": "CCc1ccc2nc(N3CCC(N[C@H]4CCCC[C@@H]4O)CC3)c(-c3nc(C)no3)cc2c1", "note": "[Compound 34, (1S,2S)-2-((1-(6-ethyl-3-(3-methyl-1,2,4-oxadiazol-5-yl)quinolin-2-yl)piperidin-4-yl)amino)cyclohexanol]", "values": [
      {"measurement": "mutagenicity in the TA1537 strain (Ames assay)", "setting": "[1]", "value": "exhibited mutagenicity in the TA1537 strain in the presence and absence of S9"}
    ]},
    {"smiles": "CCc1ccc2nc(N3CCC(N[C@@H](C)C(C)C)CC3)c(-c3nc(C)no3)cc2c1", "note": "[Compound 33, (S)-1-(6-ethyl-3-(3-methyl-1,2,4-oxadiazol-5-yl)quinolin-2-yl)-N-(3-methylbutan-2-yl)piperidin-4-amine]", "values": [
      {"measurement": "mutagenicity in the TA1537 strain (Ames assay)", "setting": "[1]", "value": "showed a mutagenic response in the TA1537 strain but only in the absence of S9"}
    ]}
  ]
}
